Measured values from publication PMC10537368, “Design, Synthesis, and Biological Evaluation of Novel 3-Cyanopyridone/Pyrazoline Hybrids as Potential Apoptotic Antiproliferative Agents Targeting EGFR/BRAF^V600E Inhibitory Pathways” (Molecules, 2023).
Several values for one entry are separate records, joined by “and”; a condition that tells them apart may be missing. Equal entries are not always repeated. Where two headings read alike, the source gives them in different places.

Legend:
[1] = system: four human cancer cell lines (A-549, MCF-7, Panc-1, HT-29); test: Antiproliferative MTT assay, average over four cancer cell lines (GI50); assay type: cell-based; settings: for IC50: Homo sapiens, average IC50 against the four cancer cell lines
[2] = system: colon cancer (HT-29) cell line; test: Antiproliferative MTT assay, HT-29; assay type: cell-based; settings: Homo sapiens; HT-29, MTT; read-out: Antiproliferative Activity IC50 ± SEM, HT-29
Source text: (§1) The median inhibitory concentration (IC50) and GI50 [58]

[3] = target: T1, BRAF^V600E (Homo sapiens, UniProt P15056, V600E); test: BRAF^V600E inhibitory assay; assay type: biochemical; settings: read-out: BRAF^V600E Inhibition IC50 ± SEM
T1 sequence (P15056 whole entry V600E): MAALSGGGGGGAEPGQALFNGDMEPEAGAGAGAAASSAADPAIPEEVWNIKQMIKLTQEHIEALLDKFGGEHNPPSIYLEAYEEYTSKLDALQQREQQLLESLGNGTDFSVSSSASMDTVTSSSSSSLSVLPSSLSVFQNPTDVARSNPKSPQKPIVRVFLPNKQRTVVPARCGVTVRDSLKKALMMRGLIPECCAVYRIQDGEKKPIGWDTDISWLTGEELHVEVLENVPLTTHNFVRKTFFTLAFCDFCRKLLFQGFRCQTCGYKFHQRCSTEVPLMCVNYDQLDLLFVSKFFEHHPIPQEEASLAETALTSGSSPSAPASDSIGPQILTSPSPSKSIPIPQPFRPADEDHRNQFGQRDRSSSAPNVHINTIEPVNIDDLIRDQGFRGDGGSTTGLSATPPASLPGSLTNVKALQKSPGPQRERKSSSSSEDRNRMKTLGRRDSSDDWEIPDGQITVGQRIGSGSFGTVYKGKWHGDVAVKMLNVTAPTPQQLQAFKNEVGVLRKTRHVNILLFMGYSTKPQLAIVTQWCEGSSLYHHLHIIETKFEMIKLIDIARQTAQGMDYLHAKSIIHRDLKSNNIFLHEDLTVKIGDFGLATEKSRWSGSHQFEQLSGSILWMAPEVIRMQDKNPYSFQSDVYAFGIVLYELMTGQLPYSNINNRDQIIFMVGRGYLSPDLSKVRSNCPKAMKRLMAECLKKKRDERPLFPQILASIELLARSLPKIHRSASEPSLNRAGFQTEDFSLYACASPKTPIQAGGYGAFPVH

[4] = system: breast cancer (MCF-7) cell line; test: Antiproliferative MTT assay, MCF-7; assay type: cell-based; settings: Homo sapiens, MCF7; MCF-7, MTT; read-out: Antiproliferative Activity IC50 ± SEM, MCF-7
Source text: as §1

[5] = target: T2, EGFR (Homo sapiens, UniProt P00533); test: EGFR inhibitory assay; settings: for fold more potent than the reference Erlotinib (EGFR IC50): IC50 ratio vs Erlotinib
T2 sequence (P00533 25-1210): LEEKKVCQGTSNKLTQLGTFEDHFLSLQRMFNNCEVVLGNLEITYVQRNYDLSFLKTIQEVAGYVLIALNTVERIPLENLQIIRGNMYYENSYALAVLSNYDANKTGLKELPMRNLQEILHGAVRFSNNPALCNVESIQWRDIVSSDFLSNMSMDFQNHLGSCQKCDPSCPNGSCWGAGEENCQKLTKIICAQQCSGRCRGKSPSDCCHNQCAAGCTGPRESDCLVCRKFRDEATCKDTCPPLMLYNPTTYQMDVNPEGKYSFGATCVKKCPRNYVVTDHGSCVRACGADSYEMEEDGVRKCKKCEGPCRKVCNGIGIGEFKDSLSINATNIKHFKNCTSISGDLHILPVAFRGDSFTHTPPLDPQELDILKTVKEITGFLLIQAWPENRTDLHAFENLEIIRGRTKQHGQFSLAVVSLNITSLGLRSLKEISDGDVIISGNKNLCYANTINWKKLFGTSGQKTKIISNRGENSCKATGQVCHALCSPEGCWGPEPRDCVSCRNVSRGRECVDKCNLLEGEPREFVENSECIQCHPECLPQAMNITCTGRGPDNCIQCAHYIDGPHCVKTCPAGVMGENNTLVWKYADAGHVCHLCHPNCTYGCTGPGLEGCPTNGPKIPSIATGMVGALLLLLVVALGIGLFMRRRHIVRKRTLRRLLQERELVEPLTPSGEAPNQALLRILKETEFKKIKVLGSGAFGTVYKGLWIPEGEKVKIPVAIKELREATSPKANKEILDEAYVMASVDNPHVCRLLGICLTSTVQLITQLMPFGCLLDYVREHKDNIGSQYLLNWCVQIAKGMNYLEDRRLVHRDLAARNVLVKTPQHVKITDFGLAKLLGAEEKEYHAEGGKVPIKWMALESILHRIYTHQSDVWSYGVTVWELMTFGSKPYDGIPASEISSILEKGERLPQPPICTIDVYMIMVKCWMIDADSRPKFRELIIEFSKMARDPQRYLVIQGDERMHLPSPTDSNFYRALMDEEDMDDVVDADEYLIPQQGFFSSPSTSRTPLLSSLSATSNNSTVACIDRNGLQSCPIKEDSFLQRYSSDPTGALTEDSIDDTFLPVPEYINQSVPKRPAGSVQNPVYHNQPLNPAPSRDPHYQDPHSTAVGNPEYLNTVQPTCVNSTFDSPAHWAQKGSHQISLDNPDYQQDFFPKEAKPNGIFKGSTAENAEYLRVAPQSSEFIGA

[6] = Cell viability MTT assay on MCF-10A normal cells; assay type: cell-based; settings: human, MCF-10A mammary gland epithelial normal cells, MCF-10A cells, four days of incubation
Method: The viability of new compounds 21–30 was examined using the human mammary gland epithelial (MCF-10A) cell line. The cell viability of compounds 21–30 was assessed using the MTT assay after four days of incubation on MCF-10A cells.
The human mammary gland epithelial (MCF-10A) normal cell line was utilized to investigate the viability of new derivatives 21–30 [56]. For more information, see Supplementary Materials Files.

[7] = system: pancreatic cancer (Panc-1) cell line; test: Antiproliferative MTT assay, Panc-1; assay type: cell-based; settings: Homo sapiens; Panc-1, MTT; read-out: Antiproliferative Activity IC50 ± SEM, Panc-1
Source text: as §1

[8] = system: lung cancer (A-549) cell line; test: Antiproliferative MTT assay, A-549; assay type: cell-based; settings: Homo sapiens, A549; A-549, MTT; read-out: Antiproliferative Activity IC50 ± SEM, A-549
Source text: as §1

[9] = system: Caspase-3 in human epithelial cancer cell line (A-594); test: Caspase 3 activation assay; assay type: cell-based; settings: for Caspase-3 Conc: A-594 cell line; for Caspase-3 Fold Change: A-594, vs untreated control cells
Source text: Caspases are essential for the induction and maintenance of apoptosis. Caspase-3 is an important caspase that cleaves several cell proteins, causing apoptosis.
See Supplementary Materials Files.

[10] = system: Bcl-2 in A-594 cancer cell line; test: Bcl-2 level assay; assay type: cell-based, human; settings: for Bcl-2 Fold Reduction: A-594, vs untreated control; for Bcl-2 Conc: A-594 cell line
Source text: […]. […]. Compared to the untreated control cell, compounds 28 and 30 elevated caspase-8 levels by 25- and 28-fold, respectively.
[…]. Compounds 21, 28, and 30 were investigated as caspase-3, caspase-8, Bax activators, and Bcl-2 down-regulators against the human epithelial cancer cell line (A-594). See Supplementary Materials Files.

[11] = system: Bax in A-594 cancer cell line; test: Bax level assay; assay type: cell-based, human; settings: for Bax Fold Change: A-594, vs untreated control; for Bax Conc: A-594 cell line
[12] = system: Caspase-8 in A-594 cancer cell line; test: Caspase-8 level assay; assay type: cell-based, human; settings: for Caspase-8 Fold Change: A-594, vs untreated control; for Caspase-8 Conc: A-594 cell line
[13] = target: T1, BRAF^V600E; settings: cited from earlier work
[14] = system: A-549 cancer; set-up: method as in PMID 37240450; settings: read-out: IC50 against A-549 cancer; cited from earlier work
[15] = target: T2, EGFR; settings: read-out: EGFR inhibition IC50; cited from earlier work
[16] = system: Panc-1 cancer; set-up: method as in PMID 36526595; settings: read-out: IC50 against Panc-1 cancer; cited from earlier work

Structure (SMILES) | IC50 [1] [nM] | IC50 [2] [nM] | IC50 [3] | IC50 [4] [nM] | IC50 [5] [nM] | viability at 4 days, 50 µM [6] [%] | IC50 [7] [nM] | IC50 [8] [nM] | also measured
N#Cc1c(-c2ccc(Cl)cc2)cc(-c2ccc(Cl)cc2)n(CC(=O)Nc2ccc(C3=NNC(c4ccccc4)C3)cc2)c1=O (centres unmarked) [Compound 21, 2-(3-Cyano-4,6-bis(4-chlorophenyl)-2-oxopyridin-1(2H)-yl)-N-(4-(5-phenyl-4,5-dihydro-1H-pyrazol-3-yl)phenyl)acetamide] | 28 | 28 ± 2 | 73 ± 6 nM | 30 ± 3 | 72 ± 5 | 90 | 28 ± 2 | 26 ± 2 | Caspase-3 Conc [9]: 530 ± 5 pg/mL
COc1ccc(-c2cc(-c3ccc(OC)c(OC)c3)n(CC(=O)Nc3ccc(C4=NNC(c5ccccc5)C4)cc3)c(=O)c2C#N)cc1OC (centres unmarked) [Compound 22, 2-(3-Cyano-4,6-bis(3,4-dimethoxyphenyl)-2-oxopyridin-1(2H)-yl)-N-(4-(5-phenyl-4,5-dihydro-1H-pyrazol-3-yl)phenyl)acetamide] | 33 | 32 ± 3 |  | 35 ± 3 |  | 89 | 34 ± 3 | 32 ± 3 | fold less potent than compound 30 (GI50) ([1]; GI50 ratio vs compound 30): 1.3 fold
N#Cc1c(-c2ccc(Cl)cc2)cc(-c2ccc(Cl)cc2)n(CC(=O)Nc2ccc(C3=NNC(c4ccc(Cl)cc4)C3)cc2)c1=O (centres unmarked) [Compound 23, 2-(3-Cyano-4,6-bis(4-chlorophenyl)-2-oxopyridin-1(2H)-yl)-N-(4-(5-(4-chlorophenyl)-4,5-dihydro-1H-pyrazol-3-yl)phenyl)acetamide] | 32 | 32 ± 3 |  | 34 ± 3 |  | 91 | 32 ± 3 | 29 ± 2 | 
COc1ccc(-c2cc(-c3ccc(OC)c(OC)c3)c(C#N)c(=O)n2CC(=O)Nc2ccc(C3=NNC(c4ccc(OC)c(OC)c4)C3)cc2)cc1 (centres unmarked) [Compound 24, 2-(3-Cyano-4-(3,4-dimethoxyphenyl)-6-(4-methoxyphenyl)-2-oxopyridin-1(2H)-yl)-N-(4-(5-(3,4-dimethoxyphenyl)-4,5-dihydro-1H-pyrazol-3-yl)phenyl)acetamide] | 29 | 28 ± 2 | 77 ± 6 nM | 31 ± 3 | 73 ± 5 | 90 | 29 ± 2 | 27 ± 2 | 
COc1ccc(C2CC(c3ccc(NC(=O)Cn4c(-c5ccc(Cl)cc5)cc(-c5ccc(Cl)cc5)c(C#N)c4=O)cc3)=NN2)cc1 (centres unmarked) [Compound 25, 2-(3-Cyano-4,6-bis(4-chlorophenyl)-2-oxopyridin-1(2H)-yl)-N-(4-(5-(4-methoxyphenyl)-4,5-dihydro-1H-pyrazol-3-yl)phenyl)acetamide] | 42 | 42 ± 4 |  | 45 ± 4 |  | 88 | 42 ± 4 | 40 ± 3 | 
Cc1ccc(C2CC(c3ccc(NC(=O)Cn4c(-c5ccc(Cl)cc5)cc(-c5ccc(Cl)cc5)c(C#N)c4=O)cc3)=NN2)c(C)c1 (centres unmarked) [Compound 26, 2-(3-Cyano-4,6-bis(4-chlorophenyl)-2-oxopyridin-1(2H)-yl)-N-(4-(5-(2,4-dimethylphenyl)-4,5-dihydro-1H-pyrazol-3-yl)phenyl)acetamide] | 37 | 36 ± 3 |  | 40 ± 4 |  | 92 | 36 ± 3 | 35 ± 3 | 
N#Cc1c(-c2ccc(Cl)cc2)cc(-c2ccc(Cl)cc2)n(CC(=O)Nc2ccc(C3=NNC(c4ccc(Cl)cc4Cl)C3)cc2)c1=O (centres unmarked) [Compound 27, 2-(3-Cyano-4,6-bis(4-chlorophenyl)-2-oxopyridin-1(2H)-yl)-N-(4-(5-(2,4-dichlorophenyl)-4,5-dihydro-1H-pyrazol-3-yl)phenyl)acetamide] | 38 | 38 ± 3 |  | 42 ± 4 |  | 88 | 38 ± 3 | 36 ± 3 | 
COc1ccc(C2CC(c3ccc(NC(=O)Cn4c(-c5ccc(OC)c(OC)c5)cc(-c5ccc(OC)c(OC)c5)c(C#N)c4=O)cc3)=NN2)cc1 (centres unmarked) [Compound 28, 2-(3-Cyano-4,6-bis(3,4-dimethoxyphenyl)-2-oxopyridin-1(2H)-yl)-N-(4-(5-(4-methoxyphenyl)-4,5-dihydro-1H-pyrazol-3-yl)phenyl)acetamide] | 27 | 26 ± 2 | 65 nM and 69 nM | 30 ± 3 | 70 ± 5 | 89 | 26 ± 2 | 25 ± 2 | Bcl-2 Fold Reduction [10]: 6 fold; Bcl-2 Conc [10]: 0.80 ng/mL; fold more potent than the reference Erlotinib (EGFR IC50) [5]: 1.2 fold; Bax Fold Change [11]: 36 fold; Bax Conc [11]: 325 pg/mL; Caspase-8 Fold Change [12]: 25 fold; Caspase-8 Conc [12]: 2.25 ng/mL; Caspase-3 Fold Change [9]: ~9 fold; Caspase-3 Conc [9]: 590 ± 5 pg/mL and 595 ± 5 pg/mL
COc1ccc(C2CC(c3ccc(NC(=O)Cn4c(-c5ccc(Cl)cc5)cc(-c5ccc(Cl)cc5)c(C#N)c4=O)cc3)=NN2)cc1OC (centres unmarked) [Compound 29, 2-(3-Cyano-4,6-bis(4-chlorophenyl)-2-oxopyridin-1(2H)-yl)-N-(4-(5-(3,4-dimethoxyphenyl)-4,5-dihydro-1H-pyrazol-3-yl)phenyl)acetamide] | 30 | 30 ± 3 | 80 ± 7 nM | 31 ± 3 | 75 ± 5 | 91 | 30 ± 3 | 27 ± 2 | 
COc1ccc(-c2cc(-c3ccc(OC)c(OC)c3)n(CC(=O)Nc3ccc(C4=NNC(c5ccc(OC)c(OC)c5)C4)cc3)c(=O)c2C#N)cc1OC (centres unmarked) [Compound 30, 2-(3-Cyano-4,6-bis(3,4-dimethoxyphenyl)-2-oxopyridin-1(2H)-yl)-N-(4-(5-(3,4-dimethoxyphenyl)-4,5-dihydro-1H-pyrazol-3-yl)phenyl)acetamide] | 25 | 24 ± 2 | 69 nM and 65 nM | 28 ± 2 | 68 ± 4 | 90 | 24 ± 2 | 23 ± 2 | fold more potent than the reference Erlotinib (GI50) ([1]; GI50 ratio vs Erlotinib): 1.3 fold; Bcl-2 Fold Reduction [10]: 8 fold; Bcl-2 Conc [10]: 0.65 ng/mL; fold more potent than the reference Erlotinib (EGFR IC50) [5]: 1.2 fold; Bax Fold Change [11]: 38 fold; Bax Conc [11]: 345 pg/mL; Caspase-8 Fold Change [12]: 28 fold; Caspase-8 Conc [12]: 2.50 ng/mL; Caspase-3 Fold Change [9]: ~11 fold; Caspase-3 Conc [9]: 710 ± 6 pg/mL
COc1ccc(C2CC(c3ccc(OCC(=O)Nc4ccc(C5=NNC(c6ccc(OC)c(OC)c6)C5)cc4)cc3)=NN2)cc1 (centres unmarked) [Compound II] |  |  |  |  |  |  |  |  | IC50 ([13]; read-out: BRAF^V600E IC50): 93 nM; IC50 [14]: 1000 nM
COc1ccc(/C=C/C(=O)c2ccc(NC(=O)Cn3c(-c4ccc(OC)c(OC)c4)cc(-c4ccc(OC)c(OC)c4)c(C#N)c3=O)cc2)cc1OC [Compound I] |  |  |  |  |  |  |  |  | IC50 [15]: 89 nM; IC50 ([13]; read-out: BRAF^V600E inhibition IC50): 65 nM; IC50 [16]: 800 nM
C#Cc1cccc(Nc2ncnc3cc(OCCOC)c(OCCOC)cc23)c1 [Erlotinib, reference compound] |  | 30 ± 3 |  | 40 ± 3 |  |  | 30 ± 3 | 30 ± 3 | 
CN[C@@H]1C[C@H]2O[C@@](C)([C@@H]1OC)n1c3ccccc3c3c4c(c5c6ccccc6n2c5c31)C(=O)NC4 [Staurosporine, reference compound] |  |  |  |  |  |  |  |  | Bcl-2 Fold Reduction [10]: 5 fold; Bcl-2 Conc [10]: 1.00 ng/mL; Bax Fold Change [11]: 32 fold; Caspase-8 Fold Change [12]: 21 fold; Caspase-3 Fold Change [9]: 7 fold
COc1cccc2c1C(=O)c1c(O)c3c(c(O)c1C2=O)C[C@@](O)(C(=O)CO)C[C@@H]3O[C@H]1C[C@H](N)[C@H](O)[C@H](C)O1 [doxorubicin] |  |  |  |  |  |  |  |  | IC50 [16]: 1000 nM; IC50 [14]: 1400 nM
